From ChEMBL document CHEMBL3585306, “Anti-HIV diarylpyrimidine-quinolone hybrids and their mode of action” (Bioorg Med Chem, 2015)
The source made the active and inactive calls. The rule behind the calls is not given here.

Tests used:
[1] = Cytotoxicity against mock-infected human MT4 cells after 5 days by MTT assay; assay type: cell-based
[2] = system: Human immunodeficiency virus 1; experiment: Antiviral activity against HIV1 harboring K103N/Y181C double mutant infected in human MT4 cells assessed as protection of cells from virus-induced cytopathic after 5 days by MTT assay; assay type: functional, organism-based; details: Human immunodeficiency virus 1, MT4, 120 h
[3] = system: Human immunodeficiency virus 1; experiment: Antiviral activity against wild-type HIV1 3B infected in human MT4 cells assessed as protection of cells from virus-induced cytopathic after 5 days by MTT assay; assay type: functional, organism-based; details: Human immunodeficiency virus 1, 3B, MT4, 120 h
[4] = Selectivity index, ratio of CC50 for mock-infected human MT4 cells to EC50 for HIV1 3B infected in human MT4 cells; assay type: toxicity, cell-based; details: mock-infected (CC50) and HIV1 3B infected (EC50)
[5] = molecular target: Human immunodeficiency virus type 1 integrase (Human immunodeficiency virus 1, UniProt Q7ZJM1); experiment: Inhibition of HIV1 integrase
[6] = molecular target: Human immunodeficiency virus type 1 reverse transcriptase (Human immunodeficiency virus 1, UniProt Q72547); experiment: Inhibition of wild-type HIV1 Reverse transcriptase p66/p51 assessed as relative fluorescence signal after 40 mins
[7] = molecular target: Human immunodeficiency virus type 1 reverse transcriptase (Human immunodeficiency virus 1) (UniProt Q72547); experiment: Inhibition of wild-type HIV1 Reverse transcriptase p66/p51 assessed as fluorescence signal by time-of-addition assay

Sequence of Human immunodeficiency virus type 1 integrase (Q7ZJM1 whole entry): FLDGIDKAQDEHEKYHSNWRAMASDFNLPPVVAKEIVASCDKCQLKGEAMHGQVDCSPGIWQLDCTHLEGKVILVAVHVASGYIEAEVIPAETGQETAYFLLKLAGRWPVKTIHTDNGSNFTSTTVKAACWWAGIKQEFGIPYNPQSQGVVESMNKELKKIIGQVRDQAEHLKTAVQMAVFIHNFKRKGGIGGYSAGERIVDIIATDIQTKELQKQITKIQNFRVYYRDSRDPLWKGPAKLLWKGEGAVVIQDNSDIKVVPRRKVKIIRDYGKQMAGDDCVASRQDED

Row | SMILES | CC50 at 120 h [1] [µM] | EC50 [2] [µM] | EC50 [3] [µM] | selectivity ratio [4] | IC50 [5] [µM] | IC50 [6] [µM] | inhibition [7]
1 | O=C1Nc2ccc(Cl)cc2[C@@](C#CC2CC2)(C(F)(F)F)O1 [EFAVIRENZ] | > 6.5 | 0.14 | – | – | – | – | –
2 | Cc1ccnc2c1NC(=O)c1cccnc1N2C1CC1 [NEVIRAPINE] | > 15 | ≥ 11 | 0.244 | – | – | – | –
3 | CC(C)n1cc(C(=O)O)c(=O)c2ccc(Oc3ccnc(Nc4ccc(C#N)cc4)n3)cc21 | > 283 | > 283 | > 283 | 1 | – | – | –
4 | CCCCn1cc(C(=O)O)c(=O)c2ccc(Oc3ccnc(Nc4ccc(C#N)cc4)n3)cc21 | ≥ 199 | > 199 | 0.33 | ≥ 604 | 32.5 | 3.49 | Active
5 | CCn1cc(C(=O)O)c(=O)c2ccc(Oc3ccnc(Nc4ccc(C#N)cc4)n3)cc21 | 246 | > 246 | 0.28 | 880 | – | 7.15 | Active
6 | N#Cc1ccc(Nc2nccc(Nc3ccc4c(=O)c(C(=O)O)cn(C5CCCCC5)c4c3)n2)cc1 | 2.18 | > 2.18 | > 2.18 | < 1 | – | – | –
7 | CCn1cc(C(=O)O)c(=O)c2ccc(Nc3ccnc(Nc4ccc(C#N)cc4)n3)cc21 | 123 | > 123 | > 123 | < 1 | – | 7.07 | –
8 | Cc1cc(C#N)cc(C)c1Oc1nc(Nc2ccc(C#N)cc2)nc(N)c1Br [ETRAVIRINE] | 14.2 | 0.014 | 0.0019 | – | – | – | –
9 | CC(C)n1cc(C(=O)O)c(=O)c2ccc(Nc3ccnc(Nc4ccc(C#N)cc4)n3)cc21 | 10.9 | > 10.9 | > 10.9 | < 1 | – | – | –
10 | CCCCn1cc(C(=O)O)c(=O)c2ccc(Nc3ccnc(Nc4ccc(C#N)cc4)n3)cc21 | 13.6 | > 13.6 | > 13.6 | < 1 | – | – | –
11 | N#Cc1ccc(Nc2nccc(Oc3ccc4c(=O)c(C(=O)O)cn(C5CCCC5)c4c3)n2)cc1 | 4.96 | > 4.96 | 0.98 | 5 | – | 6.08 | –
12 | CC(C)Cn1cc(C(=O)O)c(=O)c2ccc(Oc3ccnc(Nc4ccc(C#N)cc4)n3)cc21 | > 274 | > 274 | 1.16 | > 237 | – | 14 | Active
13 | CCCn1cc(C(=O)O)c(=O)c2ccc(Oc3ccnc(Nc4ccc(C#N)cc4)n3)cc21 | 245 | > 245 | ≥ 0.43 | ≤ 569 | – | 9.12 | –
14 | CCC(C)n1cc(C(=O)O)c(=O)c2ccc(Oc3ccnc(Nc4ccc(C#N)cc4)n3)cc21 (stereo unspecified) | > 274 | > 274 | > 274 | 1 | – | – | –
15 | Cc1cn([C@H]2C[C@H](N=[N+]=[N-])[C@@H](CO)O2)c(=O)[nH]c1=O [ZIDOVUDINE] | > 94 | 0.0052 | 0.0056 | 16800 | – | – | –
16 | COc1cc2c(cc1Cc1cccc(Cl)c1F)c(=O)c(C(=O)O)cn2[C@H](CO)C(C)C | 4.6 | 0.0022 | 0.0031 | – | – | – | –
17 | N#Cc1ccc(Nc2nccc(Oc3ccc4c(=O)c(C(=O)O)cn(C5CCCCC5)c4c3)n2)cc1 | 3.22 | > 3.22 | > 3.22 | < 1 | – | – | –
18 | N#Cc1ccc(Nc2nccc(Oc3ccc4c(=O)c(C(=O)O)cn(C5CC5)c4c3)n2)cc1 | ≥ 221 | > 221 | > 221 | ≤ 1 | – | – | –
19 | CCCn1cc(C(=O)O)c(=O)c2ccc(Nc3ccnc(Nc4ccc(C#N)cc4)n3)cc21 | 189 | > 189 | > 189 | < 1 | – | – | –
